Here are results for 9 molecules from ChEMBL document CHEMBL5500385, “Macrocyclization strategy for improving candidate profiles in medicinal chemistry” (Eur J Med Chem, 2024).

Data set [1] deals with Prothrombin (Homo sapiens, UniProt P00734).
Description: Binding affinity to thrombin (unknown origin) assessed as inhibition constant
Data set [2] deals with Plasminogen (Homo sapiens, UniProt P00747).
Description: Binding affinity to plasmin (unknown origin) assessed as inhibition constant
Data set [3] addresses T1, Peptidyl-prolyl cis-trans isomerase FKBP4 (Homo sapiens, UniProt Q02790).
T1 sequence (Q02790 whole entry): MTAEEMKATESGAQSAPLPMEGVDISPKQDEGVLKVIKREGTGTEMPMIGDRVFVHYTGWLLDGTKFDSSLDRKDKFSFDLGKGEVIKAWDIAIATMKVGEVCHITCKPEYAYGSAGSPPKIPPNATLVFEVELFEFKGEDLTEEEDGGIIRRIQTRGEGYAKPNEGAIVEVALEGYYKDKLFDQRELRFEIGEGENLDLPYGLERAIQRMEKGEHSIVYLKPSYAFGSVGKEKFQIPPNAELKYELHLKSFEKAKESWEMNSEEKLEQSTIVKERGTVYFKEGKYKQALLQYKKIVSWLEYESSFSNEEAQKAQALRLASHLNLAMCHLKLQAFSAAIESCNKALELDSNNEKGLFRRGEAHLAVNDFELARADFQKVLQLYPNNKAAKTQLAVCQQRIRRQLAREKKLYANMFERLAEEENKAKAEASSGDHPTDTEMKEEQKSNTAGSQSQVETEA
Description: Binding affinity to FKBP52 (unknown origin) assessed as inhibition constant by fluorescence polarization assay

A short description of data set [4]: in vitro. The settings on record: human, liver microsomes.
Data set [5] addresses T1, Peptidyl-prolyl cis-trans isomerase FKBP4. The source holds these as a separate data set.
Description: Binding affinity to FKBP52 (unknown origin) assessed as dissociation constant by fluorescence polarization assay
For data set [6], the target named is Calcitonin gene-related peptide type 1 receptor (Homo sapiens, UniProt O60894+Q16602).
Description: Inhibition of CGRP (unknown origin)
Data set [7] deals with T2, Muscleblind-like protein 1 (Homo sapiens, UniProt Q9NR56).
T2 sequence (Q9NR56 whole entry): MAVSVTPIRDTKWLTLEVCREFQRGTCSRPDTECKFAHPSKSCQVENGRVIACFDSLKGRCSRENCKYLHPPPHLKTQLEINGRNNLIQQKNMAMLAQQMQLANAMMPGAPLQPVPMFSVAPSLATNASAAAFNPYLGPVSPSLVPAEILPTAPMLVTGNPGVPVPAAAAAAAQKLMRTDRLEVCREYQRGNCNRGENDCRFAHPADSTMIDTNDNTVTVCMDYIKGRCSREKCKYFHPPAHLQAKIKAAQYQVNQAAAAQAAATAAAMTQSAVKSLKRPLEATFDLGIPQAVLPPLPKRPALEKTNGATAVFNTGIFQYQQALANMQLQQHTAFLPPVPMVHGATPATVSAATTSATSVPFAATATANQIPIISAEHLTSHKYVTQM
Description: Binding affinity to MBNL1 (unknown origin) (1 to 272 residues) assessed as dissociation constant

The test system of data set [8] is SET-2. The experiment in a line: cells. As to conditions: Homo sapiens.
Description: Antiproliferative activity against human SET2 cells assessed as reduction in cell viability
The test system of data set [9] is HEL. The experiment in a line: cells. The settings on record: Homo sapiens.
Description: Antiproliferative activity against human HEL cells assessed as reduction in cell growth
The target in data set [10] is Tyrosine-protein kinase JAK2 (Homo sapiens, UniProt O60674).
Description: Inhibition of JAK2 (unknown origin)
Data set [11] addresses T3, ATP-citrate synthase (Homo sapiens, UniProt P53396).
T3 sequence (P53396 whole entry): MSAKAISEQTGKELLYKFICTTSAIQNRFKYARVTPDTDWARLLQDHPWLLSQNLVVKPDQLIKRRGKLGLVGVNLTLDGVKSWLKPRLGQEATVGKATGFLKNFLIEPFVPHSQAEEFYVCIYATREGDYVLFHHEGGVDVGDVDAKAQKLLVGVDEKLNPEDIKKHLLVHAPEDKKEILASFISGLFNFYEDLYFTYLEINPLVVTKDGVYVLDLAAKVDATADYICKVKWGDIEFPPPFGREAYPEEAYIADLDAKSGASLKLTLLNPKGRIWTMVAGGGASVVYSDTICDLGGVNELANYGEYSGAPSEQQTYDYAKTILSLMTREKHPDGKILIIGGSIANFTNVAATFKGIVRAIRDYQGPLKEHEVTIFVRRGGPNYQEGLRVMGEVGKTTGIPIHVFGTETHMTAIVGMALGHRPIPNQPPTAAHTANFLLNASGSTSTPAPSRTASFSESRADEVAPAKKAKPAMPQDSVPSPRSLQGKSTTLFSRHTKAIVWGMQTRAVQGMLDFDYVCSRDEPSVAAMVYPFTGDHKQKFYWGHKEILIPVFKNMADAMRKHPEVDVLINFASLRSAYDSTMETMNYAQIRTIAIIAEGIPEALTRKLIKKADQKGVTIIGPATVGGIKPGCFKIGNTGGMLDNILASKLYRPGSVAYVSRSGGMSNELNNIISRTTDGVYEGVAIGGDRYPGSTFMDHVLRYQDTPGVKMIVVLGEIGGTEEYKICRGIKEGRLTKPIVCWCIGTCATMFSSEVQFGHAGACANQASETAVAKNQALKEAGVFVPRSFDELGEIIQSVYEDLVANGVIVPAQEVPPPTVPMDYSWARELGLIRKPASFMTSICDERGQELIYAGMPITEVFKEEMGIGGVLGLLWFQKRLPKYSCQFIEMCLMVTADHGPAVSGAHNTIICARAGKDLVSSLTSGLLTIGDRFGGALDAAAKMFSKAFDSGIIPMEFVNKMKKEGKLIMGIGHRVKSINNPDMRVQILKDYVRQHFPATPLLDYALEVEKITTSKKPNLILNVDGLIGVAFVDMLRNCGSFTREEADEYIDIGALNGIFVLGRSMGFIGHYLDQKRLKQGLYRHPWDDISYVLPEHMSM
Description: Binding affinity to ATP citrate lyase (unknown origin) assessed as dissociation constant

The target in data set [12] is T3, ATP-citrate synthase. This is another data set of the same source.
Description: Inhibition of ATP citrate lyase (unknown origin)

Tyrosine-protein kinase JAK2, sequence (O60674 whole entry): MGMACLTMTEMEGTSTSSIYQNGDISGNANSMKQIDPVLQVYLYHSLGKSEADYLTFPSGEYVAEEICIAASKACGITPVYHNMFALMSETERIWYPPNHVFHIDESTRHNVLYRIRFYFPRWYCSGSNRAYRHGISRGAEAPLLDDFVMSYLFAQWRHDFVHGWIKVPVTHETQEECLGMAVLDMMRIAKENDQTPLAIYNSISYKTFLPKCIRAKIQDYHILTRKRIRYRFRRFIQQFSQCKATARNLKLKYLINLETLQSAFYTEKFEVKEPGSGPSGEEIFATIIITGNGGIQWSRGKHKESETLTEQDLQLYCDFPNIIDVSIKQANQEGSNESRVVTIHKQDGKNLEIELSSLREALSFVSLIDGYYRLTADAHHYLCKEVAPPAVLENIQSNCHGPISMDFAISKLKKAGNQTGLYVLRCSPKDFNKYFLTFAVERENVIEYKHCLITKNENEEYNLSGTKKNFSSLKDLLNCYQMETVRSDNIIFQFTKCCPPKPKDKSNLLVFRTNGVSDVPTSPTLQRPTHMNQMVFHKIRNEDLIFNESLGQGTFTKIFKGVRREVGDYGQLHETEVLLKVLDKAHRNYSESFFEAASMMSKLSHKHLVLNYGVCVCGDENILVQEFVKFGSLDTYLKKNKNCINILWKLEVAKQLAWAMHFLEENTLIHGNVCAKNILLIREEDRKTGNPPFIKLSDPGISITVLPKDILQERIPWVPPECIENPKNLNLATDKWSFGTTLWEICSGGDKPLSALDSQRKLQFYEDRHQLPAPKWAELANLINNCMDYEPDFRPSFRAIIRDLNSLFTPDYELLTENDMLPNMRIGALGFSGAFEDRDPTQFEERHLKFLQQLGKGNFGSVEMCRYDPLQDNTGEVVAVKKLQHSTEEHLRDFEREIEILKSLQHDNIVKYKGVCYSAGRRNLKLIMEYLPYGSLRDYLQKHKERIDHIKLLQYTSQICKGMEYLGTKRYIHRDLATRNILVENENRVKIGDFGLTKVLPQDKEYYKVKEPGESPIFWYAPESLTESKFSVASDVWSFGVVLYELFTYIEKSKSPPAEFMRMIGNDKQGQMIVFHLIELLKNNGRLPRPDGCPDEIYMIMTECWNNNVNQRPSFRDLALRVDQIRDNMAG
Plasminogen, sequence (P00747 97-580 limits assumed): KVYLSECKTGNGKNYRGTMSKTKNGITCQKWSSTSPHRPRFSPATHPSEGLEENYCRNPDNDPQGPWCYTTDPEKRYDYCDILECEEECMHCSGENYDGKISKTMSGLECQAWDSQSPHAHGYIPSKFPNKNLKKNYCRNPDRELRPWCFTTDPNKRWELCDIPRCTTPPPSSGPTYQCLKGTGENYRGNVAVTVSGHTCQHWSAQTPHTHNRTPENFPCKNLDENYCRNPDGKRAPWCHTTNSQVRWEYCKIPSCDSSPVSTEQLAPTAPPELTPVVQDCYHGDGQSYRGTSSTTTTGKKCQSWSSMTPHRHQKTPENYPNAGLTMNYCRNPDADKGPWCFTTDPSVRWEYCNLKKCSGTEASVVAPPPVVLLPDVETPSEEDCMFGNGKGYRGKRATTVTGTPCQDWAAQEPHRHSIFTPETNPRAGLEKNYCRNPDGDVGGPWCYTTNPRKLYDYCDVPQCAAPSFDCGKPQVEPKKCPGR
Plasminogen, sequence (P00747 581-810 limits assumed): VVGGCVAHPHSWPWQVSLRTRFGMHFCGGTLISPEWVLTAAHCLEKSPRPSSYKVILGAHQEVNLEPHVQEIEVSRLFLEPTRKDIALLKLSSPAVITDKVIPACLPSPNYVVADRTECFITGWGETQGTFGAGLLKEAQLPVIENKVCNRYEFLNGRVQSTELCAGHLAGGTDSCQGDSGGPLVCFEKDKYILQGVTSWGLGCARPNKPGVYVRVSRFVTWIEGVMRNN
Calcitonin gene-related peptide type 1 receptor, sequence (Q16602 whole entry, one chain of several): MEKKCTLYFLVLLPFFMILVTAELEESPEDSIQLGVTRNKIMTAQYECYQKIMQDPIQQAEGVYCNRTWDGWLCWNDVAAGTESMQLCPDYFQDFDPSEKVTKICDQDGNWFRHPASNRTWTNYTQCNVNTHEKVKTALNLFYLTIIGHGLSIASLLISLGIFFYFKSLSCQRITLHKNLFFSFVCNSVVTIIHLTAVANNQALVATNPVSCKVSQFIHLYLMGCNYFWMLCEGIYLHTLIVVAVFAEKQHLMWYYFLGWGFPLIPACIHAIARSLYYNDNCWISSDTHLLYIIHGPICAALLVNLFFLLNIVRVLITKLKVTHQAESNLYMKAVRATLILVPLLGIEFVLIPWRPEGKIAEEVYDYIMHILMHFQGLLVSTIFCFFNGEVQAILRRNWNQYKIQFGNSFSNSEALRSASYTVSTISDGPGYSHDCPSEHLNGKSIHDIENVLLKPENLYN

`N=C(N)c1ccc(CNC(=O)[C@H](Cc2cccc(C(=N)N)c2)NC(=O)[C@@H](CCCc2ccccc2)NS(=O)(=O)Cc2cccc(C(=O)O)c2)cc1`: the Ki amounted to 0.667 µM in data set [1] and 0.00081 µM in data set [2].

For `COc1ccc(CC[C@@H](OC(=O)[C@@H]2CCCCN2C(=O)[C@H](c2cc(OC)c(OC)c(OC)c2)C2CCCCC2)c2cccc(OCCN3CCOCC3)c2)cc1OC`, the Ki in data set [3] was greater than 50 µM.

Consider `O=C1NCc2ccccc2-c2cc(c(F)cc2F)NS(=O)(=O)c2cc1cc(Cl)c2O`, for which the CLint scaled in data set [4] was found to be 3.27 mL/min/kg.

Take `COc1ccc(CC[C@@H](OC(=O)[C@@H]2CCCCN2C(=O)[C@H](c2cc(OC)c(OC)c(OC)c2)C2CCCCC2)c2cccc(OCC(=O)O)c2)cc1OC`: the Ki in data set [3] was greater than 50 µM.

In the case of `COc1cccc([C@@H](CCc2ccc(OC)c(OC)c2)OC(=O)[C@@H]2CCCCN2C(=O)[C@H](c2cc(OC)c(OC)c(OC)c2)C2CCCCC2)c1`, the Kd in data set [5] is greater than 10 µM.

For `Cc1cc(C[C@@H](NC(=O)c2cnc3c(c2)C[C@@]2(C3)C(=O)Nc3ncccc32)C(=O)N(C)C)cc2cn[nH]c12`, the IC50 in [6] was determined as 0.01 µM.

`COc1ccc2nc3cc(Cl)ccc3c(NCCCCNc3nc(N)nc(N)n3)c2c1` returned a Kd in [7] of 0.3 µM.

Take `Cc1cnc2nc1Nc1cccc(c1)COC/C=C/COCc1cc(ccc1OCCN1CCCC1)N2`: the results for the concentration for half-maximal inhibition (IC50) in [8], in data set [9] and in data set [10] were 11.1 µM, 3.06 µM and 0.006 µM, respectively.

The molecule `COC(=O)c1cc(Cl)c(O)c(S(=O)(=O)Nc2cc(-c3ccccc3)c(F)cc2F)c1` registered a CLint scaled in [4] of 372 mL/min/kg. The molecule further came in with a Kd in data set [11] of 0.128 µM. The molecule further showed an IC50 in [12] of 0.044 µM.
